# Tests used:
# [1] = system: apomorphine-induced hypothermia, stereotypies and climbing; assay: Low Dose Apomorphine Test in the mouse; assay type: in vivo; conditions: for STEREOTYPY (intensity score), 20 min after apomorphine, mean ± s.e.m. / STEREOTYPY (intensity score), 50 min after apomorphine, mean ± s.e.m.: 4 point scale (0-3); for CLIMBING (No. of mice), 20 minutes after apomorphine / CLIMBING (No. of mice), 50 minutes after apomorphine: 6 mice per group; for Rectal Temperature, 30 min after apomorphine, mean ± s.e.m. / Rectal Temperature, 60 min after apomorphine, mean ± s.e.m. / Rectal Temperature, before apomorphine, mean ± s.e.m.: mouse; for Rectal Temperature, 30 min after apomorphine, mean change from control / Rectal Temperature, 60 min after apomorphine, mean change from control / STEREOTYPY (intensity score), 20 min after apomorphine, mean change from control / STEREOTYPY (intensity score), 50 min after apomorphine, mean change from control: vs vehicle; for Rectal Temperature, before apomorphine, mean ± s.e.m.: 30 min after test substance
# Source text: Racemic tofisopam, (R)-tofisopam and (S)-tofisopam were investigated in the Low Dose Apomorphine Test in the mouse to evaluate their pro- or anti-dopaminergic activity following intraperitoneal (i.p.) administration of apomorphine. Apomorphine, at a low dose, induces hypothermia, stereotypies and climbing. All three of these symptoms are potentiated by dopaminergic agonists and antagonized by dopamine antagonists, such as classical neuroleptics. The Low Dose Apomorphine Test, thus serves to detect pro- or antidopaminergic activity. The test was performed according to the protocols described by Chermat and Poncelet. See, Chermat R., Poncelet M., “Antagonisme des redressements, des stéréotypies et de l'hypotheimie induits par 1 ou 16 mg.kg-1 d'apomorphine,” J. Pharmacol., 14, 93-97, 1983.
# Male mice of Rj: NMRI strain, 23-26 g body weight range were supplied by Elevage Janvier, 53940 Le Genest-Saint-Isle, France. The animals were delivered to the laboratory at least 3 days before the experiment and, upon arrival, were housed 10 per cage in macrolon cages (25×19×13 cm) containing wood shavings (Litalabo-SPPS, 95100 Argenteuil, France) with free access to food (UAR 113-UAR, 91360 Epinay-sur-Orge, France) and tap water (i.e. non-fasted) until tested. The animal house was maintained under artificial lighting (12 hours) between 7.00 and 19.00 in a controlled ambient temperature of 21±1° C., and relative humidity maintained at 40-70%.
# The different treatments were equally distributed between the animals. During the experiment, each animal within a cage received the same treatment. Animals within a cage were individually marked on the tail with an indelible pen.
# The experiment was conducted blind with treatment vials labeled A, B, C etc., according to a standardized coding procedure. The evaluation of the different treatments was balanced over time by testing successive series of individual animals from each treatment group in a fixed rotation (A, B, C, etc.). Animals were sacrificed at the end of the experiment by exposure to CO2.
# Three compounds, racemic tofisopam, (R)-tofisopam and (S)-tofisopam were tested in the Low Dose Apomorphine Test. Each of these three compounds was dosed as a dispersion in 0.2% hydroxypropylmethylcellulose (HPMC) (Sigma), in sterile physiological saline (Laboratoire Aguettant).
# Two reference standards were also dosed. Bromocriptine, methanesulfonate (Sigma), a known dopamine agonist, and haloperidol (Sigma), a known dopamine antagonist, were dispersed in 0.2% HPMC in sterile physiological saline.
# Apomorphine hydrochloride, the dopamine mimetic employed in the assay, was dissolved in water for injectable preparation (Laboratoire Aguettant). Dosing: All of the dosed substances were administered in a volume of 10 ml/kg. The doses are expressed in mg/kg of supplied substance.
# 6 mice were studied per group. The test was performed blind.
# Racemic tofisopam, (R)-tofisopam and (S)-tofisopam were administered at doses of 16, 32 and 64 mg/kg, administered intraperitonealy (i.p.), 30 minutes prior to administration of apomorphine.
# The rectal temperature of the mice was measured prior to apomorphine dosing using a rectal probe (Physitemp Instruments Digital Laboratory Thermometer Model BAT-12). The mice were then placed in individual Plexiglas cages (10×6×4 cm) attached with the opening against a vertical wire grid.
# The mice were then injected subcutaneously (s.c.) with apomorphine (1 mg/kg). Rectal temperature was measured 30 and 60 minutes after the injection of apomorphine.
# The intensity of stereotypies (sniffing, licking, gnawing), were scored at 20 minutes and 50 minutes after injection of apomorphine on a 4 point scale (0-3). The presence (1) or absence (0) of climbing against the wire grid wall, were also assessed 20 and 50 minutes after injection of apomorphine.
# The reference standards bromocriptine (16 mg/kg) and haloperidol (0.5 mg/kg), were administered under the same experimental conditions.
# peripheral BZ receptors = peripheral BZ receptors (Homo sapiens, UniProt P30536); conditions: cited from earlier work
# peripheral BZ receptors, sequence (P30536 whole entry): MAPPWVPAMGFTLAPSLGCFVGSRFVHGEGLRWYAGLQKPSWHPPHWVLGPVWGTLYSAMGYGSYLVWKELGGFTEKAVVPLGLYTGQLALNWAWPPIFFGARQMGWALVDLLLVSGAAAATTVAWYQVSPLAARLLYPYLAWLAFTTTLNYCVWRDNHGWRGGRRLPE
# central BZ receptors = conditions: cited from earlier work
# [2] = 16 mg/kg i.p. 30 min before apomorphine 1 mg/kg s.c.
# [3] = 32 mg/kg i.p. 30 min before apomorphine 1 mg/kg s.c.
# [4] = 64 mg/kg i.p. 30 min before apomorphine 1 mg/kg s.c.
structure (smiles),measurement,setting,value
"CCC1C(C)=NN=C(c2ccc(OC)c(OC)c2)c2cc(OC)c(OC)cc21 (racemic) [Racemic tofisopam, racemic-1-(3,4-dimethoxyphenyl)-4-methyl-5-ethyl-7,8-dimethoxy-5H-2,3-benzodiazepine]","STEREOTYPY (intensity score), 20 min after apomorphine, mean ± s.e.m.",[1]; [2],3.0 ± 0.0
same,"STEREOTYPY (intensity score), 50 min after apomorphine, mean ± s.e.m.",[1]; [2],0.7 ± 0.2
same,"CLIMBING (No. of mice), 20 minutes after apomorphine",[1]; [2],6 No. of mice
same,"CLIMBING (No. of mice), 50 minutes after apomorphine",[1]; [2],3 No. of mice
same,"Rectal Temperature, 30 min after apomorphine, mean ± s.e.m.",[1]; [2],35.3 ± 0.6 °C
same,"Rectal Temperature, 60 min after apomorphine, mean ± s.e.m.",[1]; [2],36.9 ± 0.3 °C
same,"Rectal Temperature, 30 min after apomorphine, mean change from control",[1]; [2],+0.2 °C
same,"Rectal Temperature, 60 min after apomorphine, mean change from control",[1]; [2],+0.2 °C
same,"STEREOTYPY (intensity score), 20 min after apomorphine, mean change from control",[1]; [2],+0.8
same,"STEREOTYPY (intensity score), 50 min after apomorphine, mean change from control",[1]; [2],−0.3
same,"Rectal Temperature, before apomorphine, mean ± s.e.m.",[1]; 16 mg/kg i.p.,37.3 ± 0.1 °C
same,"STEREOTYPY (intensity score), 20 min after apomorphine, mean ± s.e.m.",[1]; [3],2.8 ± 0.2
same,"STEREOTYPY (intensity score), 50 min after apomorphine, mean ± s.e.m.",[1]; [3],0.8 ± 0.3
same,"CLIMBING (No. of mice), 20 minutes after apomorphine",[1]; [3],6 No. of mice
same,"CLIMBING (No. of mice), 50 minutes after apomorphine",[1]; [3],5 No. of mice
same,"Rectal Temperature, 30 min after apomorphine, mean ± s.e.m.",[1]; [3],34.3 ± 0.5 °C
same,"Rectal Temperature, 60 min after apomorphine, mean ± s.e.m.",[1]; [3],36.6 ± 0.3 °C
same,"Rectal Temperature, 30 min after apomorphine, mean change from control",[1]; [3],−0.8 °C
same,"Rectal Temperature, 60 min after apomorphine, mean change from control",[1]; [3],−0.1 °C
same,"STEREOTYPY (intensity score), 20 min after apomorphine, mean change from control",[1]; [3],+0.6
same,"STEREOTYPY (intensity score), 50 min after apomorphine, mean change from control",[1]; [3],−0.2
same,"Rectal Temperature, before apomorphine, mean ± s.e.m.",[1]; 32 mg/kg i.p.,37.1 ± 0.2 °C
same,"STEREOTYPY (intensity score), 20 min after apomorphine, mean ± s.e.m.",[1]; [4],2.3 ± 0.2
same,"STEREOTYPY (intensity score), 50 min after apomorphine, mean ± s.e.m.",[1]; [4],1.3 ± 0.2
same,"CLIMBING (No. of mice), 20 minutes after apomorphine",[1]; [4],6 No. of mice
same,"CLIMBING (No. of mice), 50 minutes after apomorphine",[1]; [4],4 No. of mice
same,"Rectal Temperature, 30 min after apomorphine, mean ± s.e.m.",[1]; [4],33.9 ± 0.5 °C
same,"Rectal Temperature, 60 min after apomorphine, mean ± s.e.m.",[1]; [4],36.3 ± 0.3 °C
same,"Rectal Temperature, 30 min after apomorphine, mean change from control",[1]; [4],−1.2 °C
same,"Rectal Temperature, 60 min after apomorphine, mean change from control",[1]; [4],−0.4 °C
same,"STEREOTYPY (intensity score), 20 min after apomorphine, mean change from control",[1]; [4],+0.1
same,"STEREOTYPY (intensity score), 50 min after apomorphine, mean change from control",[1]; [4],+0.3
same,"Rectal Temperature, before apomorphine, mean ± s.e.m.",[1]; 64 mg/kg i.p.,37.2 ± 0.2 °C
same,behaviour on apomorphine-induced hypothermia (rectal temperature),"[1]; 64 mg/kg, thirty and sixty minute time points, trend not statistically significant",weak dopamine antagonist
same,behaviour on apomorphine-induced stereotypies,"[1]; 16 and 32 mg/kg, twenty minute time point, significant only at 16 mg/kg",strong dopamine agonist
same,binding to peripheral BZ receptors,peripheral BZ receptors,binds only weakly
same,interaction with central BZ receptors,central BZ receptors,does not interact
